In this assay the test system is Lewis lung carcinoma i.m., BDF1 mice, T/C %. As to the kind of experiment: NCI In Vivo Anticancer Drug Screen. Data for tumor model Lewis Lung Carcinoma (intramuscular) in B6D2F1 (BDF1) mice. The method, boiled down:
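Value is the ratio of a treated-group measurement (T) to the matching vehicle-control measurement (C), using either survival or tumour size in mice bearing transplanted tumours.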

Molecules are shown by their SMILES. Where “and” joins values, the source holds several entries; their conditions need not be identical. Identical values can stand only once. Records with an inconclusive call do not appear.

`CC1OC(O[C@@H]2C=C3CC[C@@H]4[C@H](CC[C@]5(C)[C@@H](c6ccc(=O)oc6)CC[C@]45O)[C@@]3(C)CC2)C(O)C(O)C1O` (stereo not given in full): the T/C (endpoint: mean tumor weight, dose: 0.31 mg/kg/injection, schedule: Q01DX011 (ip), vehicle: steriod suspending solution, higher = larger tumour) is 92 % of control; the T/C (endpoint: mean tumor weight, dose: 0.62 mg/kg/injection, schedule: Q01DX011 (ip), vehicle: steriod suspending solution, higher = larger tumour) is 114 % of control; the T/C (endpoint: mean tumor weight, dose: 1.25 mg/kg/injection, schedule: Q01DX011 (ip), vehicle: steriod suspending solution, higher = larger tumour) was 36 % of control; the T/C (endpoint: mean tumor weight, dose: 2.5 mg/kg/injection, schedule: Q01DX011 (ip), vehicle: steriod suspending solution, higher = larger tumour) is 50 % of control; the T/C (endpoint: median survival time, dose: 0.31 mg/kg/injection, schedule: Q01DX011 (ip), vehicle: steriod suspending solution, higher = longer survival) is 122 % of control; the T/C (endpoint: median survival time, dose: 1.25 mg/kg/injection, schedule: Q01DX011 (ip), vehicle: steriod suspending solution, higher = longer survival) is 113 % of control. Besides, the T/C (endpoint: median survival time, dose: 2.5 mg/kg/injection, schedule: Q01DX011 (ip), vehicle: steriod suspending solution, higher = longer survival) is 119 % of control.
Consider `O=c1cnn(C2OC(CO)C(O)C2O)c(=O)[nH]1` (stereo not given), for which the T/C (endpoint: median survival time, dose: 75.0 mg/kg/injection, schedule: Q01DX009 (ip), vehicle: Klucel (hydroxypropylcellulose) (HPC), higher = longer survival) is 112 % of control; the T/C (endpoint: median survival time, dose: 150.0 mg/kg/injection, schedule: Q01DX009 (ip), vehicle: Klucel (hydroxypropylcellulose) (HPC), higher = longer survival) is 120 % of control; the T/C (endpoint: median survival time, dose: 300.0 mg/kg/injection, schedule: Q01DX009 (ip), vehicle: Klucel (hydroxypropylcellulose) (HPC), higher = longer survival) is 121 % of control; the T/C (endpoint: median survival time, dose: 600.0 mg/kg/injection, schedule: Q01DX009 (ip), vehicle: Klucel (hydroxypropylcellulose) (HPC), higher = longer survival) was 119 % of control.
On to `Cc1cc2c3ccc(C)[n+](C)c3ccc2n1C`, for which the T/C is, setting by setting: (endpoint: mean tumor weight (est.), dose: 0.6 mg/kg/injection, schedule: Q01DX011 (ip), vehicle: saline, higher = larger tumour) 81 % of control; (endpoint: mean tumor weight (est.), dose: 1.25 mg/kg/injection, schedule: Q01DX011 (ip), vehicle: saline, higher = larger tumour) 59 % of control; (endpoint: mean tumor weight (est.), dose: 2.5 mg/kg/injection, schedule: Q01DX011 (ip), vehicle: saline, higher = larger tumour) 110 % of control.
Consider `Nc1ccn(C2OC(COP(=O)(O)O)C(O)C2O)c(=O)n1` (stereo not given), for which the T/C (endpoint: mean tumor weight, dose: 19.6 mg/kg/injection, schedule: Q01DX011 (ip), vehicle: saline, higher = larger tumour) is 68 % of control; the T/C (endpoint: median survival time, dose: 19.6 mg/kg/injection, schedule: Q01DX011 (ip), vehicle: saline, higher = longer survival) is 94 % of control and 96 % of control; the T/C (endpoint: median survival time, dose: 32.6 mg/kg/injection, schedule: Q01DX011 (ip), vehicle: saline, higher = longer survival) was 43 % of control; the T/C (endpoint: median survival time, dose: 54.0 mg/kg/injection, schedule: Q01DX011 (ip), vehicle: saline, higher = longer survival) was 42 % of control; the T/C (endpoint: median survival time, dose: 90.0 mg/kg/injection, schedule: Q01DX011 (ip), vehicle: saline, higher = longer survival) was 39 % of control.
On to `Nc1cc(I)c2cccnc2c1O`, for which the T/C runs as follows: (endpoint: mean tumor weight (est.), dose: 6.25 mg/kg/injection, schedule: Q01DX011 (ip), vehicle: saline with Tween-80, higher = larger tumour) 87 % of control; (endpoint: mean tumor weight (est.), dose: 12.5 mg/kg/injection, schedule: Q01DX011 (ip), vehicle: saline with Tween-80, higher = larger tumour) 97 % of control; (endpoint: mean tumor weight (est.), dose: 25.0 mg/kg/injection, schedule: Q01DX011 (ip), vehicle: saline with Tween-80, higher = larger tumour) 87 % of control; (endpoint: median survival time, dose: 6.25 mg/kg/injection, schedule: Q01DX011 (ip), vehicle: saline with Tween-80, higher = longer survival) 114 % of control; (endpoint: median survival time, dose: 12.5 mg/kg/injection, schedule: Q01DX011 (ip), vehicle: saline with Tween-80, higher = longer survival) 108 % of control; (endpoint: median survival time, dose: 25.0 mg/kg/injection, schedule: Q01DX011 (ip), vehicle: saline with Tween-80, higher = longer survival) 104 % of control.
For `C1OC1CN1CCN(CC2CO2)CC1` (stereo not given), the T/C is 83 % of control (endpoint: mean tumor weight (est.), dose: 1.0 mg/kg/injection, schedule: Q01DX011 (ip), vehicle: saline, higher = larger tumour); 65 % of control (endpoint: mean tumor weight (est.), dose: 2.0 mg/kg/injection, schedule: Q01DX011 (ip), vehicle: saline, higher = larger tumour); 74 % of control (endpoint: mean tumor weight (est.), dose: 4.0 mg/kg/injection, schedule: Q01DX011 (ip), vehicle: saline, higher = larger tumour); 71 % of control (endpoint: mean tumor weight (est.), dose: 8.0 mg/kg/injection, schedule: Q01DX011 (ip), vehicle: saline, higher = larger tumour); 63 % of control (endpoint: mean tumor weight (est.), dose: 16.0 mg/kg/injection, schedule: Q01DX011 (ip), vehicle: saline, higher = larger tumour); 96 % of control (endpoint: median survival time, dose: 2.0 mg/kg/injection, schedule: Q01DX011 (ip), vehicle: saline, higher = longer survival). The T/C is, setting by setting: (endpoint: median survival time, dose: 4.0 mg/kg/injection, schedule: Q01DX011 (ip), vehicle: saline, higher = longer survival) 105 % of control; (endpoint: median survival time, dose: 16.0 mg/kg/injection, schedule: Q01DX011 (ip), vehicle: saline, higher = longer survival) 106 % of control.
For `CCOC(N)=O`, the T/C reads like this: (endpoint: median survival time, dose: 25.0 mg/kg/injection, schedule: Q01DX011 (ip), vehicle: saline, higher = longer survival) 110 % of control; (endpoint: median survival time, dose: 100.0 mg/kg/injection, schedule: Q01DX011 (ip), vehicle: saline, higher = longer survival) 100 % of control; (endpoint: median survival time, dose: 200.0 mg/kg/injection, schedule: Q01DX011 (ip), vehicle: saline, higher = longer survival) 104 % of control; (endpoint: median survival time, dose: 400.0 mg/kg/injection, schedule: Q01DX011 (ip), vehicle: saline, higher = longer survival) 110 % of control.
Consider `c1ccc(-c2csc3c4ccccc4c4ccccc4[n+]23)cc1`, for which the T/C was 102 % of control (endpoint: mean tumor weight (est.), dose: 0.5 mg/kg/injection, schedule: Q01DX011 (ip), vehicle: saline with Tween-80, higher = larger tumour); 61 % of control (endpoint: mean tumor weight (est.), dose: 2.0 mg/kg/injection, schedule: Q01DX011 (ip), vehicle: saline with Tween-80, higher = larger tumour); 89 % of control (endpoint: median survival time, dose: 0.5 mg/kg/injection, schedule: Q01DX011 (ip), vehicle: saline with Tween-80, higher = longer survival); 93 % of control (endpoint: median survival time, dose: 2.0 mg/kg/injection, schedule: Q01DX011 (ip), vehicle: saline with Tween-80, higher = longer survival).
For `CC1CC(C)(O)CC(C(O)CC2CC(=O)NC(=O)C2)C1=O` (stereo not given), the T/C runs as follows: (endpoint: mean tumor weight, dose: 0.1 mg/kg/injection, schedule: Q01DX011 (ip), vehicle: saline, higher = larger tumour) 56 % of control; (endpoint: median survival time, dose: 0.1 mg/kg/injection, schedule: Q01DX011 (ip), vehicle: saline, higher = longer survival) 90 % of control.
As for `O=C1C=C(N2CC2)c2ccccc2C1=O`, the T/C reads like this: (endpoint: mean tumor weight (est.), dose: 5.0 mg/kg/injection, schedule: Q01DX011 (ip), vehicle: saline, higher = larger tumour) 74 % of control; (endpoint: mean tumor weight (est.), dose: 10.0 mg/kg/injection, schedule: Q01DX011 (ip), vehicle: saline, higher = larger tumour) 58 % of control; (endpoint: median survival time, dose: 5.0 mg/kg/injection, schedule: Q01DX011 (ip), vehicle: saline, higher = longer survival) 100 % of control; (endpoint: median survival time, dose: 10.0 mg/kg/injection, schedule: Q01DX011 (ip), vehicle: saline, higher = longer survival) 100 % of control.
For the compound `Nc1ncc(N)c(N)n1`, the T/C runs as follows: (endpoint: mean tumor weight (est.), dose: 40.0 mg/kg/injection, schedule: Q01DX011 (ip), vehicle: saline, higher = larger tumour) 80 % of control; (endpoint: mean tumor weight (est.), dose: 80.0 mg/kg/injection, schedule: Q01DX011 (ip), vehicle: saline, higher = larger tumour) 88 % of control; (endpoint: mean tumor weight (est.), dose: 160.0 mg/kg/injection, schedule: Q01DX011 (ip), vehicle: saline, higher = larger tumour) 119 % of control; (endpoint: median survival time, dose: 40.0 mg/kg/injection, schedule: Q01DX011 (ip), vehicle: saline, higher = longer survival) 103 % of control; (endpoint: median survival time, dose: 80.0 mg/kg/injection, schedule: Q01DX011 (ip), vehicle: saline, higher = longer survival) 98 % of control; (endpoint: median survival time, dose: 160.0 mg/kg/injection, schedule: Q01DX011 (ip), vehicle: saline, higher = longer survival) 94 % of control.
In the case of `CCC[CH2][Sn]1([CH2]CCC)[O]OC(c2ccccc2)[O]1` (stereo not given), the T/C (endpoint: median survival time, dose: 0.5 mg/kg/injection, schedule: Q01DX009 (ip), vehicle: saline, higher = longer survival) was 107 % of control; the T/C (endpoint: median survival time, dose: 1.0 mg/kg/injection, schedule: Q01DX009 (ip), vehicle: saline, higher = longer survival) was 114 % of control; the T/C (endpoint: median survival time, dose: 2.0 mg/kg/injection, schedule: Q01DX009 (ip), vehicle: saline, higher = longer survival) was 106 % of control; the T/C (endpoint: median survival time, dose: 4.0 mg/kg/injection, schedule: Q01DX009 (ip), vehicle: saline, higher = longer survival) was 113 % of control.
Take `NC(=S)N/N=C/c1ccc(O)cn1`: the T/C runs as follows: (endpoint: mean tumor weight, dose: 5.0 mg/kg/injection, schedule: Q03HX024 (ip), vehicle: other, higher = larger tumour) 60 % of control; (endpoint: mean tumor weight, dose: 10.0 mg/kg/injection, schedule: Q03HX024 (ip), vehicle: other, higher = larger tumour) 46 % of control; (endpoint: mean tumor weight, dose: 50.0 mg/kg/injection, schedule: Q01DX009 (ip), vehicle: other, higher = larger tumour) 15 % of control; (endpoint: mean tumor weight, dose: 50.0 mg/kg/injection, schedule: Q01DX011 (ip), vehicle: other, higher = larger tumour) 18 % of control and 40 % of control; (endpoint: mean tumor weight, dose: 100.0 mg/kg/injection, schedule: Q01DX011 (ip), vehicle: other, higher = larger tumour) 17 % of control; (endpoint: mean tumor weight, dose: 200.0 mg/kg/injection, schedule: Q04DX003 (ip), vehicle: other, higher = larger tumour) 47 % of control. For the same compound, the T/C (endpoint: mean tumor weight, dose: 400.0 mg/kg/injection, schedule: Q04DX003 (ip), vehicle: other, higher = larger tumour) is 28 % of control; the T/C (endpoint: median survival time, dose: 5.0 mg/kg/injection, schedule: Q03HX024 (ip), vehicle: other, higher = longer survival) was 108 % of control; the T/C (endpoint: median survival time, dose: 10.0 mg/kg/injection, schedule: Q03HX024 (ip), vehicle: other, higher = longer survival) is 112 % of control; the T/C (endpoint: median survival time, dose: 50.0 mg/kg/injection, schedule: Q01DX011 (ip), vehicle: other, higher = longer survival) is 113 % of control; the T/C (endpoint: median survival time, dose: 100.0 mg/kg/injection, schedule: Q01DX009 (ip), vehicle: other, higher = longer survival) is 170 % of control; the T/C (endpoint: median survival time, dose: 100.0 mg/kg/injection, schedule: Q01DX011 (ip), vehicle: other, higher = longer survival) was 103 % of control. For the same compound, the T/C (endpoint: median survival time, dose: 200.0 mg/kg/injection, schedule: Q04DX003 (ip), vehicle: other, higher = longer survival) was 120 % of control.

The values are drawn from PubChem BioAssay AID272 (DTP/NCI, 2004).
